Data as given in ChEMBL document CHEMBL3769371, “1-[(2E)-3-Phenylprop-2-enoyl]-1H-benzimidazoles as anticancer agents: synthesis, crystal structure analysis and binding studies of the most potent anticancer molecule with serum albumin” (Medchemcomm, 2015).

Legend:
[1] = Antiproliferative activity against human SKOV3 cells at 10'5 M; type: functional, SK-OV-3
786-0 = test: Cytotoxicity against human 786-0 cells after 48 hrs by SRB assay; type: functional; settings: 786-0, 48 h
[2] = Cytotoxicity against human UACC257 cells after 48 hrs by SRB assay; type: functional; settings: UACC-257, 48 h
U-251 = test: Cytotoxicity against human U251 cells assessed as cell growth at 10^-5 M after 48 hrs by SRB assay; type: functional; settings: U-251, 48 h, read-out: Activity
[3] = Cytotoxicity against human TK10 cells assessed as cell growth at 10^-5 M after 48 hrs by SRB assay; type: functional; settings: TK-10, 48 h, read-out: Activity
Malme-3M = test: Cytotoxicity against human MALME-3M cells assessed as cell growth at 10^-5 M after 48 hrs by SRB assay; type: functional; settings: read-out: Activity
[4] = Cytotoxicity against human OVCAR3 cells after 48 hrs by SRB assay; type: functional; settings: OVCAR-3, 48 h
[5] = Cytotoxicity against human SF539 cells after 48 hrs by SRB assay; type: functional; settings: SF-539, 48 h
[6] = Cytotoxicity against human RPMI8226 cells after 48 hrs by SRB assay; type: functional; settings: RPMI-8226, 48 h
[7] = Cytotoxicity against human COLO205 cells assessed as cell growth at 10^-5 M after 48 hrs by SRB assay; type: functional; settings: COLO 205, 48 h, read-out: Activity
[8] = Antiproliferative activity against human PC3 cells at 10'5 M; type: functional, PC-3
[9] = Cytotoxicity against human SF295 cells assessed as cell growth at 10^-5 M after 48 hrs by SRB assay; type: functional; settings: SF-295, 48 h, read-out: Activity
[10] = Cytotoxicity against human OVCAR8 cells after 48 hrs by SRB assay; type: functional; settings: OVCAR-8, 48 h
[11] = Cytotoxicity against human HOP62 cells after 48 hrs by SRB assay; type: functional; settings: HOP-62, 48 h
NCI-H460 [12] = test: Cytotoxicity against human NCI-H460 cells after 48 hrs by SRB assay; type: functional; settings: NCI-H460, 48 h
[13] = Cytotoxicity against human Caki1 cells assessed as cell growth at 10^-5 M after 48 hrs by SRB assay; type: functional; settings: CAKI-1, 48 h, read-out: Activity
[14] = Cytotoxicity against human SF268 cells after 48 hrs by SRB assay; type: functional; settings: SF-268, 48 h
[15] = Antiproliferative activity against human NCI-ADR-RES cells at 10'5 M; type: functional
[16] = Cytotoxicity against human HCC2998 cells assessed as cell growth at 10^-5 M after 48 hrs by SRB assay; type: functional; settings: HCC 2998, 48 h, read-out: Activity
NCI-H23 = test: Cytotoxicity against human NCI-H23 cells assessed as cell growth at 10^-5 M after 48 hrs by SRB assay; type: functional; settings: NCI-H23, 48 h, read-out: Activity
[17] = Cytotoxicity against human SKOV3 cells assessed as cell growth at 10^-5 M after 48 hrs by SRB assay; type: functional; settings: SK-OV-3, 48 h, read-out: Activity
SK-MEL-28 = test: Cytotoxicity against human SK-MEL-28 cells assessed as cell growth at 10^-5 M after 48 hrs by SRB assay; type: functional; settings: SK-MEL-28, 48 h, read-out: Activity
Albumin [18] = target: T1, Albumin (Homo sapiens, UniProt P02768); test: Binding affinity to human serum albumin at 0.25 uM at 303 K by fluorescence microscopic analysis in the presence of Ni2+; type: ADME; settings: isolated protein
T1 sequence (P02768 whole entry): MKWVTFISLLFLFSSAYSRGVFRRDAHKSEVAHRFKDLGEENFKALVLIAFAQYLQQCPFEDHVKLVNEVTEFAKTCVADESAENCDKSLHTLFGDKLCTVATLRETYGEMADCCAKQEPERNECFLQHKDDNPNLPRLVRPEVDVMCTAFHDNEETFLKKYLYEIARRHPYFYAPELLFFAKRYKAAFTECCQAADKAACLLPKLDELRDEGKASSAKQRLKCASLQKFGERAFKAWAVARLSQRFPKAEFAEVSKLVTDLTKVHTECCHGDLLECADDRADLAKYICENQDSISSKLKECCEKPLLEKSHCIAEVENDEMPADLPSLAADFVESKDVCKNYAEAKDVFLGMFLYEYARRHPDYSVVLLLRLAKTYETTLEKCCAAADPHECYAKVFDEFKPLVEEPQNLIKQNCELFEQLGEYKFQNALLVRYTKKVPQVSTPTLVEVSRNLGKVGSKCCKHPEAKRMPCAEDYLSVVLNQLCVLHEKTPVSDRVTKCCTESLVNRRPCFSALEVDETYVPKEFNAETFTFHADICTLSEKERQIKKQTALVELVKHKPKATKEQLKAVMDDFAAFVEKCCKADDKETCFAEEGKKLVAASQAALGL

[19] = Cytotoxicity against human HCT116 cells after 48 hrs by SRB assay; type: functional; settings: HCT-116, 48 h
MDA-MB-435 = test: Cytotoxicity against human MDA-MB-435 cells assessed as cell growth at 10^-5 M after 48 hrs by SRB assay; type: functional; settings: MDA-MB-435, 48 h, read-out: Activity
[20] = Antiproliferative activity against human SNB75 cells at 10'5 M; type: functional, SNB-75
[21] = Cytotoxicity against human SF539 cells assessed as cell growth at 10^-5 M after 48 hrs by SRB assay; type: functional; settings: SF-539, 48 h, read-out: Activity
[22] = Cytotoxicity against human RXF393 cells after 48 hrs by SRB assay; type: functional; settings: RXF 393, 48 h
[23] = Antiproliferative activity against human OVCAR4 cells at 10'5 M; type: functional, OVCAR-4
[24] = Cytotoxicity against human SNB19 cells assessed as cell growth at 10^-5 M after 48 hrs by SRB assay; type: functional; settings: SNB-19, 48 h, read-out: Activity
Albumin [25] = target: T1, Albumin; test: Binding affinity to human serum albumin at 0.25 to 2 uM at 303 K by fluorescence microscopic analysis in the absence of site probes; type: ADME; settings: isolated protein
NCI-H460 [26] = test: Cytotoxicity against human NCI-H460 cells assessed as cell growth at 10^-5 M after 48 hrs by SRB assay; type: functional; settings: NCI-H460, 48 h, read-out: Activity
[27] = Cytotoxicity against human OVCAR5 cells assessed as cell growth at 10^-5 M after 48 hrs by SRB assay; type: functional; settings: OVCAR-5, 48 h, read-out: Activity
K562 = test: Antiproliferative activity against human K562 cells at 10'5 M; type: functional
NCI-H522 = test: Cytotoxicity against human NCI-H522 cells after 48 hrs by SRB assay; type: functional; settings: NCI-H522, 48 h
MCF7 = test: Cytotoxicity against human MCF7 cells after 48 hrs by SRB assay; type: functional; settings: MCF7, 48 h
Albumin [28] = target: T1, Albumin; test: Binding affinity to human serum albumin at 0.25 to 2 uM at 308 K by fluorescence microscopic analysis; type: ADME; settings: isolated protein
[29] = Cytotoxicity against human COLO205 cells after 48 hrs by SRB assay; type: functional; settings: COLO 205, 48 h
[30] = Cytotoxicity against human SW620 cells after 48 hrs by SRB assay; type: functional; settings: SW-620, 48 h
[31] = read-out: LC50 (the source's name)

With `O=C(/C=C/c1ccccc1)n1c(-c2ccc(Cl)cc2)nc2ccccc21` the “growth inhibition (GI)” value [1] was 76.05%, the GI50 (786-0) was 2.43 µM and the TGI (786-0) was 5.71 µM. For the same molecule, the CC50 (786-0; [31]) was 18 µM, the GI50 [2] was 1.64 µM and the TGI [2] was 3.12 µM. For the same molecule, the CC50 [2, 31] was 5.93 µM, the growth at 10 µM (U-251) was -0.39% and the growth at 10 µM [3] was 18.6%. It also gave a growth at 10 µM (Malme-3M) of 15.9%, a GI50 [4] of 1.95 µM and a TGI [4] of 4.63 µM. For the same molecule, the CC50 [4, 31] was 13.4 µM, the GI50 [5] was 2.5 µM and the TGI [5] was 6.46 µM. It also gave a CC50 [5, 31] of 26.1 µM, a GI50 [6] of 0.61 µM and a TGI [6] of 3.82 µM. The CC50 [6, 31] was greater than 100 µM, the growth at 10 µM [7] was -60.8% and the “growth inhibition (GI)” value [8] was 93.91%. It also gave a growth at 10 µM [9] of -52%, a GI50 [10] of 1.74 µM and a TGI [10] of 4.21 µM. For the same molecule, the CC50 [10, 31] was 10.5 µM, the GI50 [11] was 1.89 µM and the TGI [11] was 7.3 µM. It also gave a CC50 [11, 31] of 35.1 µM, a GI50 (NCI-H460 [12]) of 1.96 µM and a TGI (NCI-H460 [12]) of 6.52 µM. The CC50 (NCI-H460 [12]; [31]) was 25.5 µM, the growth at 10 µM [13] was -39.5% and the GI50 [14] was 1.45 µM. The TGI [14] was 5.03 µM, the CC50 [14, 31] was 27.9 µM and the “growth inhibition (GI)” value [15] was 89.22%. For the same molecule, the growth at 10 µM [16] was 5.08%, the growth at 10 µM (NCI-H23) was -24.5% and the growth at 10 µM [17] was 23.9%. The growth at 10 µM (SK-MEL-28) was -65.4%, the K (Albumin [18]) was 5.35 ×10³ /mol and the GI50 [19] was 1.8 µM. For the same molecule, the TGI [19] was 3.45 µM, the CC50 [19, 31] was 6.61 µM and the growth at 10 µM (MDA-MB-435) was -44.3%. For the same molecule, the “growth inhibition (GI)” value [20] was 81.93%, the growth at 10 µM [21] was -48.4% and the GI50 [22] was 1.32 µM. For the same molecule, the TGI [22] was 3.12 µM, the CC50 [22, 31] was 7.37 µM and the “growth inhibition (GI)” value [23] was 69.96%. The growth at 10 µM [24] was 41.1%, the K (Albumin [25]) was 5.68 ×10³ /mol and the growth at 10 µM (NCI-H460 [26]) was 0.54%. For the same molecule, the growth at 10 µM [27] was -48.1%, the “growth inhibition (GI)” value (K562) was 60.22% and the GI50 (NCI-H522) was 1.53 µM. It also gave a TGI (NCI-H522) of 3.5 µM, a CC50 (NCI-H522; [31]) of 8.04 µM and a GI50 (MCF7) of 1.01 µM. The TGI (MCF7) was 9.92 µM, the CC50 (MCF7; [31]) was 55.5 µM and the K (Albumin [28]) was 6.27 ×10³ /mol. The GI50 [29] was 1.23 µM, the TGI [29] was 2.64 µM and the CC50 [29, 31] was 5.65 µM. The GI50 [30] was 1.44 µM, the TGI [30] was 2.93 µM and the CC50 [30, 31] was 5.97 µM.
